Laboratory results taken from patent US8309353B2, “Method for induction of differentiation of ES cell” (Kumamoto University, priority 2007, dated 2012).

Columns and labels:
mouse ES cells (SK7) = experiment: Immunohistochemical analysis of AFP-, Pdx1/GFP- and Alb-expressing cells in mouse ES cells differentiated on M15 cells; assay type: cell-based; details: for number of AFP-positive cells: factor added after d4, 10% KSR, 2,000 mg/L glucose (FIG. 3); for AFP expression, one factor added: one factor added d4 to d8, KSR, glucose 2,000 mg/L (FIG. 2B)
Method: A previously reported SK7 cell line (mouse ES cells) having a Pdx1 promoter-derived GFP reporter-introduced gene was used (International Publication WO2006/126574). The SK7 ES cells were maintained on mouse embryonic fibroblasts (MEF), using a Glasgow minimum essential medium (Invitrogen) supplemented with 1,000 units/mL leukemia inhibitory factor (Chemicon), 15% KSR (knockout serum replacement; Gibco), 1% fetal bovine serum (FBS; Hyclone), 100 μM nonessential amino acid (Invitrogen), 2 mM L-glutamine (Invitrogen), 1 mM sodium pyruvate (Invitrogen), 50 units/mL penicillin, 50 μg/mL streptomycin (Invitrogen) and 100 μM β-mercaptoethanol.
Thereafter, the ES cells (the number of cells: 5,000 and 20,000, respectively) were inoculated on a 24-well or 6-well plate (Nunc) that had previously been coated with the M15 cells. Subsequently, using DMEM containing 100 μM nonessential amino acid, 2 mM L-glutamine, 50 units/mL penicillin, 50 μg/mL streptomycin and 100 μM β-mercaptoethanol, the cells were cultured in a differentiation culture solution containing 10% FBS and 4,500 mg/L glucose from the initial day of culture (d0) to day 4 (d4), and after d4, the cells were then cultured in another culture solution containing 10% KSR and 2,000 mg/L glucose. Thus, the cells were cultured for a maximum of 30 days. In order to induce the […] endoderm, activin A (20 ng/mL) and bFGF (50 ng/mL) were added during the period from d0 to d4. Moreover, HGF (10 ng/mL) and dexamethasone (1 μM) were added during the period from d4 to d30. The culture solution was replaced with a fresh one containing a growth factor every two days. The details of such growth factor will be described at the end of the diferentiation section.
Recombinant human activin A (R&D Systems): 20 ng/mL; recombinant human bFGF (Peprotech): 50 ng/mL; recombinant human BMP4 (R&D Systems): 50 ng/mL; SU5402 (Mohammadi, et al., (1997). Science 276, 955-60.) (Calbiochem): 10 μM; recombinant mouse Noggin/Fc Chimera (R&D Systems): 100 ng/mL; recombinant human hepatic cell growth factor (HGF, Peprotech): 10 ng/mL; dexamethasone (Dex, Sigma): 1 μM; recombinant human oncostatin M (OSM, Sigma): 10 ng/mL.
For whole mount immunocytochemical analysis, ES cells were inoculated on 24-well Thennanox coverslips (Nunc). Using TCS-SP2 Spectral Confocal Scanning System (Leica), a confocal image was obtained. Using IX 71 Inverted (Olympus), a phase-contrast image was obtained. The following antibodies were used in detection: mouse anti-GFP (Roche), rabbit anti-α-fetoprotein (AFP, Biomeda), goat anti-albumin (Sigma), fluorescein isothiocyanate (FITC)-labeled Dolichos biflorus agglutinin (DBA) lectin (Sigma), rabbit anti-α-1-anti-trypsin (Sigma), rabbit anti-CYP3A2 (Biomol), rabbit anti-CYP7A1 (Santa Cruz), and mouse anti-Oct3/4 (Santa Cruz). As secondary antibodies, an Alexa568-labeled goat anti-rabbit antibody, donkey anti-goat antibody (Molecular Probes), and an Alexa488-labeled goat anti-mouse antibody, goat anti-rabbit antibody, and donkey anti-goat antibody (Molecular Probes) were used. The cells were subjected to counterstaining using DAPI (Roche). In order to quantify the number of the Afp-expressing cells of FIG. 3B, the region of an Afp-positive stained image was analyzed using Lumina Vision program (Mitani Corporation).

[1] = tested on: mouse ES cell-derived hepatic cells; experiment: Albumin secretion analysis by ELISA; assay type: cell-based
Method: The medium was replaced with a fresh one, and 24 hours later, the conditioned medium was recovered. Using Lebis ELISA kit (Shibayagi), albumin secretion was analyzed.
It has been reported that OsM induces maturation of mouse fetal liver cells (Kamiya, A., Kinoshita, T. & Miyajima, A. (2001) Oncostatin M and hepatocyte growth factor induce hepatic maturation via distinct signaling pathways. FEBS Lett 492, 90-94). Thus, the influence of OsM on albumin secretion was analyzed by ELISA. The effect of OsM to enhance albumin secretion was not observed until […].

| Molecule | number of AFP-positive cells (mouse ES cells (SK7)) | AFP expression, one factor added (mouse ES cells (SK7)) | further results |
| --- | --- | --- | --- |
| Cc1c[nH]c(/C=C2\C(=O)Nc3ccccc32)c1CCC(=O)O [SU5402, reference compound] | decreased |  |  |
| HGF: recombinant human hepatic cell growth factor (Peprotech) |  | promoted in the order of Dex>HGF>OsM |  |
| Noggin | almost all AFP-expressing cells disappeared |  |  |
| bFGF: recombinant human bFGF (Peprotech) | increased |  | AFP-expressing cells when bFGF was added to Noggin (mouse ES cells (SK7); in the presence of Noggin, after d4, 10% KSR, 2,000 mg/L glucose (FIG. 3)): recovered |
| OsM: recombinant human oncostatin M (Sigma) (protein, UniProt P13725 26-221, looked up) Oncostatin-M: AAIGSCSKEYRVLLGQLQKQTDLMQDTSRLLDPYIRIQGLDVPKLREHCRERPGAFPSEETLRGLGRRGFLQTLNATLGCVLHRLADLEQRLPKAQDLERSGLNIEDLEKLQMARPNILGLRNNIYCMAQLLDNSDTAEPTKAGRGASQPPTPTPASDAFQRKLEGCRFLHGYHRFMHSVGRVFSKWGESPNRSRR |  | promoted in the order of Dex>HGF>OsM | increase of albumin secretion ([1]; d50 and d60, medium with OsM, Dex and HGF versus control medium with only Dex and HGF, 24 hours): 2 times; effect to enhance albumin secretion ([1]; until c40, OsM added to Dex and HGF): not observed |
